From patent US9322066B2, “Predictors for cancer treatment” (priority 2011, dated 2016)

Tested on: relapsed or refractory, rituximab-naive or -sensitive follicular B-cell NHL
Test: Duration of response, Vc-R vs rituximab study, by biomarker
Type: in vivo, human
Source text: Non-Hodgkin lymphoma (NHL) encompasses several unique malignant lymphoid disease entities that vary in clinical behavior, morphologic appearance, immunologic, and molecular phenotype. […] A randomized, open-label, active-controlled, multicenter, multinational, prospective study to compare the efficacy and safety of the combination of bortezomib and rituximab (Vc-R) to single-agent rituximab in subjects who have relapsed or refractory, rituximab-naive or -sensitive follicular B-cell NHL was performed.
Subjects were centrally randomized to Treatment Groups A (Vc-R) or B (rituximab) in a 1:1 ratio taking into account the following stratification factors: • Follicular Lymphoma International Prognostic Index (FLIPI) score (low [0 or 1 factor], intermediate [2 factors], high [≧3 factors]); • Prior rituximab therapy (yes, no); • Time since last dose of anti-lymphoma therapy (≦1 year, >1 year); • Region (United States/Canada, European Union, Rest of World).
The following clinical endpoints were included in the analysis within each treatment group and an overall comparison was made with the biomarker-related endpoints: Progression-free survival, defined as the interval between the date of randomization and the date of progressive disease (PD) or death, whichever is first reported in the ITT population; overall survival; overall response rate (complete response [CR]+CR unconfirmed [CRu]+partial response [PR]); overall CR rate (CR+CRu); duration of response; time to next anti-lymphoma therapy; and treatment free interval.
Comparison of the response rates between the treatment groups was conducted using the Fishers Exact Test. Duration of response, time to response, and time to clinical relapse were analyzed descriptively, where appropriate, and the biomarker subset was compared (if appropriate, determined as per the initial analysis) to the overall clinical cohort, by treatment group and overall. An exploratory estimate of the response rates in each treatment group was presented with 2-sided 95% confidence intervals. The number and percentage of subjects falling into each response category was descriptively tabulated.

[1] = 20S % NUCLEAR STAINING: 30-50, Prior Rituximab Therapy
[2] = 20S INTENSITY CYTOPLASMIC SIGNAL: ≦2+, Intermediate FLIPI Score
[3] = 20S INTENSITY CYTOPLASMIC SIGNAL: ≧3+, Intermediate FLIPI Score
[4] = 20S INTENSITY CYTOPLASMIC SIGNAL: ≧3+, No Prior Rituximab Therapy
[5] = 20S INTENSITY CYTOPLASMIC SIGNAL: ≧3+, ≦65 years old
[6] = BCL2/ A43G: MND, Ann Arbor Stage IV
[7] = BCL2/ E29K: MND, Ann Arbor Stage IV
[8] = BCL2/ P46L: MD, >1 year since last anti- lymphoma treatment
[9] = BCL2/ P59L: MD, 1 Prior Line of Therapy
[10] = BCL2/ P59L: MD, >1 year since last anti- lymphoma treatment
[11] = BCL2/ P59L: MD, Prior Rituximab Therapy
[12] = BCL2/ R106H: MND, Ann Arbor Stage IV
[13] = CD68 OVERALL POSITIVE: 0-25, High FLIPI Score
[14] = CD68 OVERALL POSITIVE: 0-25, ≦1 year since last anti-lymphoma treatment
[15] = CD68 OVERALL POSITIVE: 51-75, Male
[16] = CD68 OVERALL POSITIVE: >75, Male
[17] = CD68 POSITIVE FOLLICULAR: 0-25, Female
[18] = CD68 POSITIVE PERIFOLLICULAR: >75, Male
[19] = NOTCH/ P2513L: MND, >65 years old
[20] = NOTCH/ X28INS: MND, Ann Arbor Stage IV
[21] = NOTCH/ X28INS: MND, ≦65 years old
[22] = P27 % NUCLEI POSITIVE: 60-70, High FLIPI Score
[23] = P27 % NUCLEI POSITIVE: 60-70, Male
[24] = P65 INTENSITY CYTOPLASMIC SIGNAL: ≦1+, Ann Arbor Stage III

Substance: rituximab
- Duration of response Evt/N [1]: 9/13
- Duration of response Median [1]: 356
- Duration of response Evt/N [2]: 9/25
- Duration of response Median [2]: 554
- Duration of response Evt/N [3]: 17/25
- Duration of response Median [3]: 352
- Duration of response Evt/N [4]: 22/32
- Duration of response Median [4]: 427
- Duration of response Evt/N [5]: 28/39
- Duration of response Median [5]: 417
- Duration of response Evt/N [6]: 23/28
- Duration of response Median [6]: 353
- Duration of response Evt/N [7]: 21/26
- Duration of response Median [7]: 344
- Duration of response Evt/N (BCL2/ E29K: MND, ≦65 years old): 32/49
- Duration of response Median (BCL2/ E29K: MND, ≦65 years old): 353
- Duration of response Evt/N [8]: 5/5
- Duration of response Median [8]: 356
- Duration of response Evt/N [9]: 2/2
- Duration of response Median [9]: 345
- Duration of response Evt/N [10]: 3/4
- Duration of response Median [10]: 330
- Duration of response Evt/N (BCL2/ P59L: MD, No Subgroup): 4/5
- Duration of response Median (BCL2/ P59L: MD, No Subgroup): 343
- Duration of response Evt/N [11]: 3/3
- Duration of response Median [11]: 330
- Duration of response Evt/N (BCL2/ P59L: MD, White): 4/5
- Duration of response Median (BCL2/ P59L: MD, White): 343
- Duration of response Evt/N [12]: 21/26
- Duration of response Median [12]: 352
- Duration of response Evt/N [13]: 7/11
- Duration of response Median [13]: 423
- Duration of response Evt/N [14]: 5/7
- Duration of response Median [14]: 354
- Duration of response Evt/N [15]: 5/7
- Duration of response Median [15]: 279
- Duration of response Evt/N [16]: 3/3
- Duration of response Median [16]: 284
- Duration of response Evt/N [17]: 12/20
- Duration of response Median [17]: 354
- Duration of response Evt/N [18]: 3/3
- Duration of response Median [18]: 284
- Duration of response Evt/N [19]: 10/23
- Duration of response Median [19]: 948
- Duration of response Evt/N [20]: 26/31
- Duration of response Median [20]: 353
- Duration of response Evt/N [21]: 44/64
- Duration of response Median [21]: 369
- Duration of response Evt/N [22]: 7/9
- Duration of response Median [22]: 337
- Duration of response Evt/N [23]: 5/6
- Duration of response Median [23]: 281
- Duration of response Evt/N [24]: 2/4
- Duration of response Median [24]: 173
- Duration of response Evt/N (PSMB5/R24C: C/C, Ann Arbor Stage II): 4/18
- Duration of response Evt/N (PSMB9/R60H: A/G, Male): 10/11
- Duration of response Median (PSMB9/R60H: A/G, Male): 211
